Data from article PMC6052462, “Oxidation resistance 1 is a novel senolytic target” (Aging Cell, 2018).

Biological target: T1, OXR1 (endogenous, senescent WI38 cells) (Homo sapiens, UniProt Q8N573)
T1 construct: native protein of human WI38 fibroblasts (senescent)
T1 sequence (Q8N573 1-874): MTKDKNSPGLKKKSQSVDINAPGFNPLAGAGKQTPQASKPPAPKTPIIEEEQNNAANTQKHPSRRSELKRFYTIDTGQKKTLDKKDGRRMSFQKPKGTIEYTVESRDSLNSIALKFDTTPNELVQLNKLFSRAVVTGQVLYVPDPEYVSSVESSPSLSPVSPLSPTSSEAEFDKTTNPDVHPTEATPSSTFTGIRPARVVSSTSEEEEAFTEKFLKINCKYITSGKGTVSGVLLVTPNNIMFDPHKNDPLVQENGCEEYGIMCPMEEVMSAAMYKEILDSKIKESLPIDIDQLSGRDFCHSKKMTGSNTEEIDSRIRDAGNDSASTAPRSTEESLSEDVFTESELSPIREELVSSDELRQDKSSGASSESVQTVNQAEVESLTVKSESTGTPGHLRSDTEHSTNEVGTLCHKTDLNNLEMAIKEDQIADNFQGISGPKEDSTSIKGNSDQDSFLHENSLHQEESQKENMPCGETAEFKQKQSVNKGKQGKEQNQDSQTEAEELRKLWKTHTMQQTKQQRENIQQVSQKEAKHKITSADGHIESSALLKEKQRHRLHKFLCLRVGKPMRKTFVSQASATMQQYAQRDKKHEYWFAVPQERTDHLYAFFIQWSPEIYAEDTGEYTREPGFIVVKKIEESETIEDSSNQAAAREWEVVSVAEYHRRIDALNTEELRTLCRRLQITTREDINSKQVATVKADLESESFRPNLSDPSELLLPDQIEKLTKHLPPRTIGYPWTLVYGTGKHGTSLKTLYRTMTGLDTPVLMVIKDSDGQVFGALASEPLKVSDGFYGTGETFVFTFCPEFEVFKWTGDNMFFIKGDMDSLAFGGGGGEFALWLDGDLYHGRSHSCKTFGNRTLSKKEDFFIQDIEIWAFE
Test: click-chemistry pull-down from live cells, LC-MS/MS
Type: cell-based
Conditions: labelled compound; 5 µM, 5 h; covalent

C#CCCOc1c(OC)cc(/C=C/C(=O)N2CCC=CC2=O)cc1OC [PL probe, alkyne-labeled piperlongumine]
click-chemistry pull-down from live cells, LC-MS/MS: OXR1 was on the top of the list of the PL‐binding proteins in SCs
